Values joined by “and” are separate entries in the source; they are usually repeats but may differ in a detail not shown here. Identical values can stand only once. “Also recorded” adds a separate entry of the source. Like-named read-outs stand apart in the source and are kept apart here.
What was measured:
hD2L receptors = hD2L receptors (Homo sapiens, UniProt P14416); test: D2R Gi/o-mediated cAMP inhibition assay; format: cell-based; details: for cAMP Emax (%): HEK293T cells, GloSensor-22F; for Emax: HEK-293T
5-HT1A = biological target: T1, 5-HT1A (Homo sapiens, UniProt P08908); test: Radioligand binding, 5-HT1A
T1 sequence (P08908 1-422): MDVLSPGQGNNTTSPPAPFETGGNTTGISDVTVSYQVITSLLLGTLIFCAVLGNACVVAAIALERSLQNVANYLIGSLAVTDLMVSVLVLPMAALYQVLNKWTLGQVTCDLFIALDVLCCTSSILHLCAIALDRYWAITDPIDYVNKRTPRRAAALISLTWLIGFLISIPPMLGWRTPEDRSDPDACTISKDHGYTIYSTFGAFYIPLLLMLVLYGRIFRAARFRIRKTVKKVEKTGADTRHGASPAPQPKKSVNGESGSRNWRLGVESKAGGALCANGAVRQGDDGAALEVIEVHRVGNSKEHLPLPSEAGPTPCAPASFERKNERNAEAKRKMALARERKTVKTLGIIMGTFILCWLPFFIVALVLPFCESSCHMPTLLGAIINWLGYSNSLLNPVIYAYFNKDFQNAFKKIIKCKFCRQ

D4R = biological target: T2, D4R (Homo sapiens, UniProt P21917); test: Radioligand binding, D4R
T2 sequence (P21917 1-419): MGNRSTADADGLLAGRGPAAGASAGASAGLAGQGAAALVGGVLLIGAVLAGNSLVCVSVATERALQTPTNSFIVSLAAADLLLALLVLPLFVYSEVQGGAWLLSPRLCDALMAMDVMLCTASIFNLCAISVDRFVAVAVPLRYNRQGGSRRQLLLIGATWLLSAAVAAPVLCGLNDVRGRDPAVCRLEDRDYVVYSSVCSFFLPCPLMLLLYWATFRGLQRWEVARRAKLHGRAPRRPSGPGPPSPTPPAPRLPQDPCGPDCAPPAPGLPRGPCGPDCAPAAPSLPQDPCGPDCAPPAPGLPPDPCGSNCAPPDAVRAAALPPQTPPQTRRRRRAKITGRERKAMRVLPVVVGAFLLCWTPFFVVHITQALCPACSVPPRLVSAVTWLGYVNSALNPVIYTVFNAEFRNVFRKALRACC

5-HT1D = 5-HT1D (Homo sapiens, UniProt P28221); test: Radioligand binding, 5-HT1D
5-HT1B = 5-HT1B (Homo sapiens, UniProt P28222); test: Radioligand binding, 5-HT1B
D2L receptors = D2L receptors (Homo sapiens, UniProt P14416); test: D2R β-arrestin-2 recruitment Tango assay; format: cell-based; details: for Emax: HTLA, read-out: β-arrestin Emax (%); for EC50: β-arrestin EC50 (nM)
D5R = D5R (Homo sapiens, UniProt P21918); test: Radioligand binding, D5R
5-HT2A = 5-HT2A (Homo sapiens, UniProt P28223); test: Radioligand binding, 5-HT2A
D1R = D1R (Homo sapiens, UniProt P21728); test: Radioligand binding, D1R
D3R = D3R (Homo sapiens, UniProt P35462); test: Radioligand binding, D3R
D2R = D2R (Homo sapiens, UniProt P14416); test: Radioligand binding, D2R
5-HT2B = 5-HT2B (Homo sapiens, UniProt P41595); test: Radioligand binding, 5-HT2B
5-HT7 = 5-HT7 (Homo sapiens, UniProt P34969); test: Radioligand binding, 5-HT7
mouse D2Long = mouse D2Long (Mus musculus, UniProt P61168); test: BRET β-arrestin-2 recruitment assay with GRK2 co-expression; format: cell-based; details: for β-arrestin-2 recruitment agonist activity in BRET assay: up to 1 µM, GRK2 co-expressed
5-HT3 = biological target: T3, 5-HT3 (Homo sapiens, UniProt P46098); test: Radioligand binding, 5-HT3
T3 sequence (P46098 24-478): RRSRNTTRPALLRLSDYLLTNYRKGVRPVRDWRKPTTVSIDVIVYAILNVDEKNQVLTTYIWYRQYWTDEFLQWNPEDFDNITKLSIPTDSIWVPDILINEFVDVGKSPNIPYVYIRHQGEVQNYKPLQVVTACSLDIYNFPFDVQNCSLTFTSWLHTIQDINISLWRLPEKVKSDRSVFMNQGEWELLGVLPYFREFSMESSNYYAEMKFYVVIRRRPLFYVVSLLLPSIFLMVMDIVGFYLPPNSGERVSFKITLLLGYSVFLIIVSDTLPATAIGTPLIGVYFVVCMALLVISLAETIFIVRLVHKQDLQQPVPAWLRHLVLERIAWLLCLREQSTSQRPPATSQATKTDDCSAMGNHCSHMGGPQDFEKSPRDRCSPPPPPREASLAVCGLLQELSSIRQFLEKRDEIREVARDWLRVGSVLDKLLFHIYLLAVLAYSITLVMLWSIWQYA

5-HT5A = 5-HT5A (Homo sapiens, UniProt P47898); test: Radioligand binding, 5-HT5A
human D2Rlong [1] = biological target: T4, human D2Rlong (Homo sapiens, UniProt P14416); test: DiscoverX PathHunter D2R β-arrestin-2 recruitment assay; format: cell-based; details: D2R-expressing CHO cells; up to 10 µM; n=1, performed in duplicate
human D2Rlong [2] = biological target: T4, human D2Rlong; test: cell-based; details: for Gαi1-Gγ2 dissociation BRET partial agonist activity relative to quinpirole: HEK293T cells
5-HT6 = 5-HT6 (Homo sapiens, UniProt P50406); test: Radioligand binding, 5-HT6
H2-histamine receptor = H2-histamine receptor (Homo sapiens, UniProt P25021); test: Radioligand binding, H2
5-HT2C = biological target: T5, 5-HT2C (Homo sapiens, UniProt P28335); test: Radioligand binding, 5-HT2C
T5 sequence (P28335 33-458): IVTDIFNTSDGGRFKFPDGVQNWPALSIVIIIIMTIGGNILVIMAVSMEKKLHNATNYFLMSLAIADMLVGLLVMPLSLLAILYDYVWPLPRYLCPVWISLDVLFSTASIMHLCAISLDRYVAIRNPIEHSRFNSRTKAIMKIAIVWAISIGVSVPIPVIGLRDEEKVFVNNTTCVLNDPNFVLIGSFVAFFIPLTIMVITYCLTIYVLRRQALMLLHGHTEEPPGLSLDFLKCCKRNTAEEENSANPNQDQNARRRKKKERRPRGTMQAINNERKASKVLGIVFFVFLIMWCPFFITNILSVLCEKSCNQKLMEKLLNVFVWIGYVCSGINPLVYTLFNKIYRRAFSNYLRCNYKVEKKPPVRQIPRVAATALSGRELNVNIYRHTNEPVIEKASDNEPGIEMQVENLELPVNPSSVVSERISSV

[3] = normalized to maximum cAMP inhibition by quinpirole (100%)
[4] = read-out: cAMP Emax (%), HEK293T cells, GloSensor-22F, normalized to maximum cAMP inhibition by quinpirole (100%)
[5] = Binding affinity Ki (nM), 5-HT1A
[6] = Binding affinity Ki (nM), 5-HT2B

Chain of 5-HT7 (P34969 whole entry, species assumed): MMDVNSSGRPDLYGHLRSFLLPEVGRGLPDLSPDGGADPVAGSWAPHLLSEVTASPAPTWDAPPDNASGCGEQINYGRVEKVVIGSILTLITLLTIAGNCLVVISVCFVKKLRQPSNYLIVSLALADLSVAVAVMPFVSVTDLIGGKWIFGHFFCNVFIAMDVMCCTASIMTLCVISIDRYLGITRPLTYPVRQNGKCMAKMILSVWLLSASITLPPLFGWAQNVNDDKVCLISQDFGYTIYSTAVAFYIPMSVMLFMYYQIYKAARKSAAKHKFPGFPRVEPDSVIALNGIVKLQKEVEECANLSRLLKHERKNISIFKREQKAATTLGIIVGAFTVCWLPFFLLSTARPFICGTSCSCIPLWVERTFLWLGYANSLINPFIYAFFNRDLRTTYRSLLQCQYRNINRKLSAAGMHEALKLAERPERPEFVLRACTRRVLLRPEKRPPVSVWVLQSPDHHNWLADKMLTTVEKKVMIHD
Chain of D1R (P21728 whole entry): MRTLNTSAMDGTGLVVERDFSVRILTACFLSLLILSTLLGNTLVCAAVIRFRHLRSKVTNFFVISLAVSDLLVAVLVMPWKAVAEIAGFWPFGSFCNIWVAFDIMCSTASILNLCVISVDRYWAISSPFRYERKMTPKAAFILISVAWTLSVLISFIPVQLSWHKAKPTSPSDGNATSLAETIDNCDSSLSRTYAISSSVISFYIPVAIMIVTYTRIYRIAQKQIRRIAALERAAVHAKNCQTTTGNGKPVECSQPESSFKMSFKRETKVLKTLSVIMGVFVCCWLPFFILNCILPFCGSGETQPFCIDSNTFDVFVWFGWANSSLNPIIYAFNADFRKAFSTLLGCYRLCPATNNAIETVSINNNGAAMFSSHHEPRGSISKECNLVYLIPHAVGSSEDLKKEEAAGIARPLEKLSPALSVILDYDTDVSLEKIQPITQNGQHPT
Chain of D5R (P21918 whole entry): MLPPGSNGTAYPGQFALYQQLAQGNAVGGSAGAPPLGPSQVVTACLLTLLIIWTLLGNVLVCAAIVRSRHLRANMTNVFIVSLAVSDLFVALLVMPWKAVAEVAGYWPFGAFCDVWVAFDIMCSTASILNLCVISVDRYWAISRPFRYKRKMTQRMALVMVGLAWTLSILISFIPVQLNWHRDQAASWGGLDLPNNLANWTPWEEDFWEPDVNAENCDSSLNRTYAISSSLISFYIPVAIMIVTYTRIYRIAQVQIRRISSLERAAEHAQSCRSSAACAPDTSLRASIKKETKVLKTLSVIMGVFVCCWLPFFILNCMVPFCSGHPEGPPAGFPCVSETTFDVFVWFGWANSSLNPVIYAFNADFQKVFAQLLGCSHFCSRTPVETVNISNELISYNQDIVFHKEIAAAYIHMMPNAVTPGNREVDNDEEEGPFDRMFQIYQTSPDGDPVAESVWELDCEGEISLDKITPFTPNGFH
Chain of 5-HT2A (P28223 whole entry, species assumed): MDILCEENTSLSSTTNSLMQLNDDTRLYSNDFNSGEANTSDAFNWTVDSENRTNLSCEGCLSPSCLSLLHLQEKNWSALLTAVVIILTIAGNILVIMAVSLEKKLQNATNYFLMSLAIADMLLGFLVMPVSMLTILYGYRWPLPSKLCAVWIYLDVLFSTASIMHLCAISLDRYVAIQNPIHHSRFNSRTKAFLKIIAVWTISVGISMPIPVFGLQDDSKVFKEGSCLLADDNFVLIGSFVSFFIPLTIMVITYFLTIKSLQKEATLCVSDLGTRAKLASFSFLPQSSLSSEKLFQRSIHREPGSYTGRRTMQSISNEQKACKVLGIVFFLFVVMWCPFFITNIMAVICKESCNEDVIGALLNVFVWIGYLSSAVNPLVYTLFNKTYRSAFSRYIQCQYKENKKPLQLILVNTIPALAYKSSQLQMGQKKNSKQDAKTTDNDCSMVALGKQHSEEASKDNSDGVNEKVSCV
Chain of 5-HT1B (P28222 whole entry, species assumed): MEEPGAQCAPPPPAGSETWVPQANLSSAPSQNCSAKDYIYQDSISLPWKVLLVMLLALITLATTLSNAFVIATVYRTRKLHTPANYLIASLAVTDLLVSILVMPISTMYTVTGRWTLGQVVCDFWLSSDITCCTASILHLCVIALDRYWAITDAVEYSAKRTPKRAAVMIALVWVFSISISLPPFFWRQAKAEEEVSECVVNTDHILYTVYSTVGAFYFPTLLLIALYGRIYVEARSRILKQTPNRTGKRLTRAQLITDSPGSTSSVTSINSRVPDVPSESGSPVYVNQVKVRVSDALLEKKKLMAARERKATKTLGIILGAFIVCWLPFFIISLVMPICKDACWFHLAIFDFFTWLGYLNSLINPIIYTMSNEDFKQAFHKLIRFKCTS
Chain of 5-HT1D (P28221 whole entry, species assumed): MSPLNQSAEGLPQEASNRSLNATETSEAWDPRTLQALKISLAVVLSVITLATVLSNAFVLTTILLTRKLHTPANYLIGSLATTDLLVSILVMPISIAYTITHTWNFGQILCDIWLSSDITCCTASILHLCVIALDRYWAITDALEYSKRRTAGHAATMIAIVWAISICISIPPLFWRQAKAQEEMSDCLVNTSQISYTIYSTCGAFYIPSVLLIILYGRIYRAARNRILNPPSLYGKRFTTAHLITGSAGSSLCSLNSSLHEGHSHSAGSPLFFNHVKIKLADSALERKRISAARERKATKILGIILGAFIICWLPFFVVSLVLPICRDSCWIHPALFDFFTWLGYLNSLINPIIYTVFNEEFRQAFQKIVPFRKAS
Chain of 5-HT2B (P41595 whole entry, species assumed): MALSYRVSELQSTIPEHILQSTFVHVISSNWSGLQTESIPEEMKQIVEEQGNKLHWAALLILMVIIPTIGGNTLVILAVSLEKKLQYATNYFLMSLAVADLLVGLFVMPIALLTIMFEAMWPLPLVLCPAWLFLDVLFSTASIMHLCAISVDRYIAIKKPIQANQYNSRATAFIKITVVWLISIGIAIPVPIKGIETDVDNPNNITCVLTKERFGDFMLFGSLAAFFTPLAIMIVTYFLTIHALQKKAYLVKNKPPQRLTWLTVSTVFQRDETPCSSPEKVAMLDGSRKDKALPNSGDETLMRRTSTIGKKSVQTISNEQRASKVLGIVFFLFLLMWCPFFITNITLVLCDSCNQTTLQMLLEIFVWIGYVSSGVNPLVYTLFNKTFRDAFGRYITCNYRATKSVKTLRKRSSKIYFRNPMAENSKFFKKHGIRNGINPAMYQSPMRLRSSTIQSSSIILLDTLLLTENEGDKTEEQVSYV
Chain of mouse D2Long (P61168 whole entry): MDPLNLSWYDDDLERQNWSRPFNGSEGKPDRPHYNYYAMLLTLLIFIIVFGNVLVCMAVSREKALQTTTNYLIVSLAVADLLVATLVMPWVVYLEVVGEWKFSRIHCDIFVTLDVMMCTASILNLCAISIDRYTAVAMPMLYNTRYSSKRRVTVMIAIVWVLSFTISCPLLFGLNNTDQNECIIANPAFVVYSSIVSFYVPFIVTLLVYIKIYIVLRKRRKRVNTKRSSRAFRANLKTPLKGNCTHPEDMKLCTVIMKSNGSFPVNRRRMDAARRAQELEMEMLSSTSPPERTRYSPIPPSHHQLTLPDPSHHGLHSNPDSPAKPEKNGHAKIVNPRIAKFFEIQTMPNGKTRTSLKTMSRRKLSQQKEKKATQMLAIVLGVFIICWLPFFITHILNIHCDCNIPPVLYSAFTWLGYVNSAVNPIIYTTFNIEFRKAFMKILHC
Chain of D3R (P35462 whole entry): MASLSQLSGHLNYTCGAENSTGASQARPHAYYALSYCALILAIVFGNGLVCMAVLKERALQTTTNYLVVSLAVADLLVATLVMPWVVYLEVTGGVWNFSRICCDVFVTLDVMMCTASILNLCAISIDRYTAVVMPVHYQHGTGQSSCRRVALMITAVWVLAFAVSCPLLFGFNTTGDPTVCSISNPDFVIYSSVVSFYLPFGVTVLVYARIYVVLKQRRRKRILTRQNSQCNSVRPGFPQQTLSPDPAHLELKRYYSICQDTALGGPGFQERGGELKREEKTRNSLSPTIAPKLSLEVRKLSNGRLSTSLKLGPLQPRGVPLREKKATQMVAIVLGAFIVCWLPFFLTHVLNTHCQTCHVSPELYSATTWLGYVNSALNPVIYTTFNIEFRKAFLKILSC
Chain of D2R (P14416 whole entry): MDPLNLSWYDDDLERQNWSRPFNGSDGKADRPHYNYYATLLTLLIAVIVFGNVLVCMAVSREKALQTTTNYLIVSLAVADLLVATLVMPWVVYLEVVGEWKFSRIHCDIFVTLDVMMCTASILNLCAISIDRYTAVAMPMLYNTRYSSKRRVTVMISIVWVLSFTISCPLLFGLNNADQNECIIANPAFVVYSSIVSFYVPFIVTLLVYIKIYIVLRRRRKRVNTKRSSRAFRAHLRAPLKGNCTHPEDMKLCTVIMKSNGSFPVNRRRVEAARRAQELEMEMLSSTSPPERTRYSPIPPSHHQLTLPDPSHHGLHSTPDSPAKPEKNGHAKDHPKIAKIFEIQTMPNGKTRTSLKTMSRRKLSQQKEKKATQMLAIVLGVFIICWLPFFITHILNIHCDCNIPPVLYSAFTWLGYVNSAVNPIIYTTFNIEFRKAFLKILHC
Chain of D2L receptors (P14416 whole entry): as above
Chain of hD2L receptors (P14416 whole entry): as above
T4 sequence (P14416 whole entry): as above
Chain of 5-HT5A (P47898 whole entry, species assumed): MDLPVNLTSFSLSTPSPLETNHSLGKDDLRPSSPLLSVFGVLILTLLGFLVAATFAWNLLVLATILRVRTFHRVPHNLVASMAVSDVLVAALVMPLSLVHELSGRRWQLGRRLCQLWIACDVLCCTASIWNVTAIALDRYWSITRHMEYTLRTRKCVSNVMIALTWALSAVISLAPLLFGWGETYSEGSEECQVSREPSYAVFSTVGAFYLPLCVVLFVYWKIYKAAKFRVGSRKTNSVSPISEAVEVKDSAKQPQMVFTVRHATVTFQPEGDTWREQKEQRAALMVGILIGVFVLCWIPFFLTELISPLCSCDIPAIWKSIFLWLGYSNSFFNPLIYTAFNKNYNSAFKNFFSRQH

Structure (SMILES) | cAMP Emax (%) (hD2L receptors; [3]) | β-arrestin-2 recruitment agonist activity in BRET assay (mouse D2Long) | Emax (hD2L receptors; [4]) [%] | Ki (5-HT1A; [5]) [nM] | Ki (D4R) [nM] | Ki (5-HT1D) [nM] | Emax (D2L receptors) [%] | Ki (5-HT2A) [nM] | Ki (D1R) [nM] | Ki (D3R) [nM] | Ki (D2R) [nM] | Ki (5-HT2B; [6]) [nM] | β-arrestin recruitment activity as measured by DiscoverX (human D2Rlong [1]) | Ki (5-HT1B) [nM] | Ki (D5R) [nM] | Ki (5-HT7) [nM] | further results
CNc1nc2cc(OCCCCN3CCN(c4cccc(Cl)c4Cl)CC3)ccc2s1 [Compound 24, 5-(4-(4-(2,3-Dichlorophenyl)piperazin-1-yl)butoxy)-N methylbenzo[d]thiazol-2-amine] | 40 | not active; also recorded: no β-arrestin recruitment |  |  |  |  |  |  |  |  |  |  |  |  |  |  | Ki (5-HT1A; read-out: Binding affinity Ki (nM), 5-HT1A): 55 nM; Ki (D4R; read-out: Binding affinity Ki (nM), D4R, radioligand binding): 280 nM; Ki (5-HT1D; read-out: Binding affinity Ki (nM), 5-HT1D, radioligand binding): 390 nM; Ki (5-HT1B; read-out: Binding affinity Ki (nM), 5-HT1B, radioligand binding): 1400 nM; β-arrestin Emax (%) (D2L receptors; Tango assay, HTLA cells, normalized to quinpirole (100%)): <20%; Ki (D5R; read-out: Binding affinity Ki (nM), D5R, radioligand binding): 1500 nM; Ki (5-HT2A; read-out: Binding affinity Ki (nM), 5-HT2A, radioligand binding): 72 nM; Ki (D1R; read-out: Binding affinity Ki (nM), D1R, radioligand binding): 1100 nM; Ki (D3R; read-out: Binding affinity Ki (nM), D3R, radioligand binding): 35 nM; Ki (D2R; read-out: Binding affinity Ki (nM), D2R, radioligand binding): 60 nM; Ki (5-HT2B; read-out: Binding affinity Ki (nM), 5-HT2B): 12 nM; Ki (5-HT7; read-out: Binding affinity Ki (nM), 5-HT7, radioligand binding): 100 nM
CCc1nc2cc(OCCCCN3CCC(c4cccc(Cl)c4Cl)CC3)ccc2s1 [Compound 46, 5-(4-(4-(2,3-Dichlorophenyl)piperidin-1-yl)butoxy)-2-ethylbenzo[d]thiazole] | 43 | not active; also recorded: no β-arrestin recruitment | 40 to 50 | 100 | 1800 | 820 | < 20 | 140 | 1700 | 100 | 170 | 71 |  |  |  |  | Ki (5-HT3): 1500 nM; Ki (5-HT5A): 1600 nM
CC(C)c1nc2cc(OCCCCN3CCN(c4cccc5c4OCCO5)CC3)ccc2s1 [Compound 53, 5-(4-(4-(2,3-Dihydrobenzo[b][1,4]dioxin-5-yl)piperazin-1-yl)butoxy)-2-isopropylbenzo[d]thiazole] |  | not active; also recorded: no β-arrestin recruitment | 30 to 40 | 1.4 | 77 | 100 | < 20 | 29 | 2000 | 31 | 30 |  | lack of β-arrestin-2 recruitment activity; also recorded: no activity | 420 | 1100 | 31 | EC50 (human D2Rlong [2]): 4.6 nM; Gαi1-Gγ2 dissociation BRET partial agonist activity relative to quinpirole (human D2Rlong [2]): 47%; Ki (5-HT3): 2600 nM
Oc1c(CN2CCN(c3ccccn3)CC2)cc(Cl)c2cccnc12 [Compound 59, 5-Chloro-7-((4-(pyridin-2-yl)piperazin-1-yl)methyl)quinolin-8-ol, reference compound] |  |  |  |  |  |  | 67 |  |  |  |  |  | lack of β-arrestin-2 recruitment activity; also recorded: no activity |  |  |  | Emax (hD2L receptors; read-out: cAMP Emax (%)): 63%; EC50 (D2L receptors; Tango assay, HTLA cells): 102 nM and 46 nM; Emax (mouse D2Long; HEK-293T, read-out: β-arrestin-2 recruitment BRET Emax (% of quinpirole)): 68%
Cc1nc2cc(OCCCCN3CCN(c4cccc(Cl)c4Cl)CC3)ccc2s1 [Compound 1, 5-(4-(4-(2,3-Dichlorophenyl)piperazin-1-yl)butoxy)-2-methylbenzo[d]thiazole] |  | no activity | 50 | 86 | 82 | 320 | 23 | 120 |  | 13 | 150 | 38 | lack of β-arrestin-2 recruitment activity; also recorded: no activity | 1700 |  | 140 | inhibition of dopamine-stimulated D2R G protein activation as measured by cAMP inhibition (hD2L receptors; antagonist mode, Figure S2): partial inhibition; EC50 (D2L receptors; Tango assay, HTLA cells): 13 nM; EC50 (human D2Rlong [2]): 3.6 nM; Gαi1-Gγ2 dissociation BRET partial agonist activity relative to quinpirole (human D2Rlong [2]): 57%; IC50 (mouse D2Long): 18 nM; antagonist activity on dopamine-stimulated β-arrestin-2 recruitment (BRET) (mouse D2Long; antagonist mode): full antagonist activity
CNc1nc2cc(OCCCCN3CCC(c4cccc(Cl)c4Cl)CC3)ccc2s1 [Compound 54, 5-(4-(4-(2,3-Dichlorophenyl)piperidin-1-yl)butoxy)-N-methylbenzo[d]thiazol-2-amine] |  | not active; also recorded: no β-arrestin recruitment | 40 to 50 | 66 | 430 | 410 |  | 70 | 1100 | 69 | 99 | < 20 |  | 2600 | 1800 |  | Ki (5-HT6): 410 nM
Cc1ccc2cccc(N3CCN(CCCCOc4ccc5sc(C(C)C)nc5c4)CC3)c2n1 [Compound 49, 2-Isopropyl-5-(4-(4-(2-methylquinolin-8-yl)piperazin-1-yl)butoxy)benzo[d]thiazole] | 32 | not active; also recorded: no β-arrestin recruitment | 30 to 40 | 14 | 7100 | 94 | < 20 | 110 | 2000 | 64 | 45 |  |  | 1600 | 1500 | 69 | Ki (H2-histamine receptor): 430 nM; Ki (5-HT2C): 140 nM; Ki (5-HT5A): 1400 nM
